DC50 and Dmax data for five compounds are collected here from US20260092071A1, “COMPOUNDS AND COMPOSITIONS AS SMARCA2/4 DEGRADERS AND USES THEREOF” (REGENTS OF THE UNIVERSITY OF MICHIGAN, priority 2022, published 2026).

In test [1] the target is SMARCA2 (Homo sapiens, UniProt P51531). Briefly: HiBit assay in engineered HT1080 CRISPR knock-in cell, 6 hrs (B series), SMARCA2. Format: cell-based. The note with it: 6 hrs incubation; for DC50: HT1080 CRISPR knock-in cells, read-out: SMARC A2 HT1080 HiBit DC50; for Dmax: HT-1080, HT1080 CRISPR knock-in cells, read-out: SMARC A2 HT1080 HiBit Dmax (%). An outline of the steps: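 Remaining SMARCA2 protein measured as HiBiT luminescence after cell lysis with LgBiT plus lytic substrate. Engineered HT1080 knock-in cells (2000/well) were first treated 6 h at 37 °C with compound at a final 0.1% DMSO.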
Chain of SMARCA2 (P51531 whole entry): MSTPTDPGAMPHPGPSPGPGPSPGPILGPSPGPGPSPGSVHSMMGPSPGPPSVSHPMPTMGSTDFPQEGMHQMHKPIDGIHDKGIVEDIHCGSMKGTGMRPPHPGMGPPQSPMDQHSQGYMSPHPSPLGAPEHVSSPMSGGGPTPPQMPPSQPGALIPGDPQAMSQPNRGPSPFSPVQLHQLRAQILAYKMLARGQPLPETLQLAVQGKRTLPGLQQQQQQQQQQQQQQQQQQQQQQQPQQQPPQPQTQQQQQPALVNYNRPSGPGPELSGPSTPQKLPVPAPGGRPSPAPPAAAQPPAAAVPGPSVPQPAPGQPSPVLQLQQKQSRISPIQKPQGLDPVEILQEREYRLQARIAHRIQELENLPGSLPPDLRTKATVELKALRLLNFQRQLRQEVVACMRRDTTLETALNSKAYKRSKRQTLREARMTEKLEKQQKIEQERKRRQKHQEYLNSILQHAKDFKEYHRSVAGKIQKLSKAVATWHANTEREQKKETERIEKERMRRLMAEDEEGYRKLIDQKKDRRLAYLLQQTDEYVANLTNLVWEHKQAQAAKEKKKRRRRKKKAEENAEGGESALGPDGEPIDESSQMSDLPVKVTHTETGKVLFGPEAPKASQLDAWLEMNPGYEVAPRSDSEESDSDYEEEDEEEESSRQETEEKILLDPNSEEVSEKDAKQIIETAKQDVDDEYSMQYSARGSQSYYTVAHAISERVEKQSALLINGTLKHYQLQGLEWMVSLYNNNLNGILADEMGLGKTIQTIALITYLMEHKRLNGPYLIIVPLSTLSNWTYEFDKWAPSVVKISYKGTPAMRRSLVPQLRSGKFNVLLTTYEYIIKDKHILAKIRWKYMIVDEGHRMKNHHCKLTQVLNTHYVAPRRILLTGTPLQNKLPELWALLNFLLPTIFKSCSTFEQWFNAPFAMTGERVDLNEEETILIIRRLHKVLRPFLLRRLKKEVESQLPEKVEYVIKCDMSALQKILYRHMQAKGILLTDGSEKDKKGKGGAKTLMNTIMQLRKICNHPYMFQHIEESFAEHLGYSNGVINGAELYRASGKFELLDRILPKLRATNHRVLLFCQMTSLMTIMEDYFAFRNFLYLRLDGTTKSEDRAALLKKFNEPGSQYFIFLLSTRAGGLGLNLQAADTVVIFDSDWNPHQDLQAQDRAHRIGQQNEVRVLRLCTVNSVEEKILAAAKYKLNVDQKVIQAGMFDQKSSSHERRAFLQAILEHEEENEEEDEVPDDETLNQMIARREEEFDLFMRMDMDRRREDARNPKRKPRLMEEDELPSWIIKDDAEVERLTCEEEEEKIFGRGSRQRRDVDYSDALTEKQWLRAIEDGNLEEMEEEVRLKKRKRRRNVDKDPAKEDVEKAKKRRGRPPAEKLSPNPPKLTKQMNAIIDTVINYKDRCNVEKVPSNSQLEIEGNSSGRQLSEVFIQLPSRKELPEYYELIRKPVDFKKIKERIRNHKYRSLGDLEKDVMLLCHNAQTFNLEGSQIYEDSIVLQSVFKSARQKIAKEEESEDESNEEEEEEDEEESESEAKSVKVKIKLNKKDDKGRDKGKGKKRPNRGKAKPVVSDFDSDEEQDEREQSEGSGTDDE

Test [2] addresses SMARCA4 (Homo sapiens, UniProt P51532). Briefly: HiBit assay in engineered HT1080 CRISPR knock-in cell, 6 hrs (B series), SMARCA4. Format: cell-based. As to conditions: 6 hrs incubation; for DC50: HT1080 CRISPR knock-in cells, read-out: SMARC A4 HT1080 HiBit DC50; for Dmax: HT-1080, HT1080 CRISPR knock-in cells, read-out: SMARC A4 HT1080 HiBit Dmax(%). A digest of the protocol:
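HT1080 CRISPR knock-in cells carrying the HiBiT tag were seeded onto compounds (final DMSO 0.1%) and incubated 6 hrs at 37° C, 5% CO2. Remaining tagged protein was detected by lytic HiBiT luminescence after adding LgBiT protein and substrate, with LgBiT-free wells serving as negative control.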

Chain of SMARCA4 (P51532 whole entry): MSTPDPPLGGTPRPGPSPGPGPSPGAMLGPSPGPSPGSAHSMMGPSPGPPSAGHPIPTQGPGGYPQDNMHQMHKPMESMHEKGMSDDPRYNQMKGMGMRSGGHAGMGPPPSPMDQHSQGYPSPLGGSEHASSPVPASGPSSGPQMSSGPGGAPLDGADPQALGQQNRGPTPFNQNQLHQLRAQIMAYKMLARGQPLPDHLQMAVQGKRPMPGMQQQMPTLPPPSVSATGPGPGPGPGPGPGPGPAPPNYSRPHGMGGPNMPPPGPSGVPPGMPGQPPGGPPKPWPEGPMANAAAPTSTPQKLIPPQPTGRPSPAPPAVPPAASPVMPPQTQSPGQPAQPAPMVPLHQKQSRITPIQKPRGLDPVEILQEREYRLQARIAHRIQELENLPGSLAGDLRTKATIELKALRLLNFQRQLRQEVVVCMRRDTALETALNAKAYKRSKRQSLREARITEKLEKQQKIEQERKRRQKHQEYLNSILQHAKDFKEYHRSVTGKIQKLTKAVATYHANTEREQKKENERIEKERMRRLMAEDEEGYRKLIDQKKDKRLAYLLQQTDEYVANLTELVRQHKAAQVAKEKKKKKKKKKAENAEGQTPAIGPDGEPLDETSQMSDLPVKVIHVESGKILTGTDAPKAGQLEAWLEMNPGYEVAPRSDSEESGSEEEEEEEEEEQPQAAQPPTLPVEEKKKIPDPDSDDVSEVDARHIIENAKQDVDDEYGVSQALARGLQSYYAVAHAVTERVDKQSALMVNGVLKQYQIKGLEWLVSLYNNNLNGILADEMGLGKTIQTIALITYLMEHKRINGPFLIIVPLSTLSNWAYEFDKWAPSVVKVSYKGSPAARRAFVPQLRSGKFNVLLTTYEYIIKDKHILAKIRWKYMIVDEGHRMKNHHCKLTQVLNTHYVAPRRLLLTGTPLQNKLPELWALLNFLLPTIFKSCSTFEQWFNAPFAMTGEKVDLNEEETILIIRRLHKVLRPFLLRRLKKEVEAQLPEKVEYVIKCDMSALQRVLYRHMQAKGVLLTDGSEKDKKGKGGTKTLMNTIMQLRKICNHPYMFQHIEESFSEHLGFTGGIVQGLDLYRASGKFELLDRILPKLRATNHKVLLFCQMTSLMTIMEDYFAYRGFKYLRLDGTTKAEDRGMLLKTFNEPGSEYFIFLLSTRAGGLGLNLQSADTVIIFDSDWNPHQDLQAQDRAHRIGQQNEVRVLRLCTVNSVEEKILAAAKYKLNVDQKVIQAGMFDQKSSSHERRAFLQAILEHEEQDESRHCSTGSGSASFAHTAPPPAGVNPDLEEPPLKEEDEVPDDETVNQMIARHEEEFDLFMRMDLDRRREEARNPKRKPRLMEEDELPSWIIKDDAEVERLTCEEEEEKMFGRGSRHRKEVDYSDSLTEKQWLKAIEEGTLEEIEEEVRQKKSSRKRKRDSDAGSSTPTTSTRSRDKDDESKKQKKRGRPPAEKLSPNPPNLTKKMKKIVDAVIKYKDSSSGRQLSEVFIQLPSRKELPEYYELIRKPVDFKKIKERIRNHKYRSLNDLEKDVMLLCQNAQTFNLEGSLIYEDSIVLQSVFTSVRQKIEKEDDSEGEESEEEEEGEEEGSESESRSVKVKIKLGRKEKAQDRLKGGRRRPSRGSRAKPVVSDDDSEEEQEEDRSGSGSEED

As for `Cc1ncsc1-c1ccc([C@H](C)NC(=O)[C@@H]2C[C@@H](O)CN2C(=O)[C@H](C(C)C)n2cc([C@H]3CC[C@H](CN4CCC(c5ccc6c(c5)-n5c(nc(=O)c7c(Cl)cccc75)C6(C)C)CC4)CC3)nn2)cc1` [Compound B41, (2S,4R)-1-((S)-2-(4-((1r,4S)-4-((4-(4-chloro-7,7-dimethyl-5-oxo-5,7-dihydroindolo[1,2-a]quinazolin-10-yl)piperidin-1-yl)methyl)cyclohexyl)-1H-1,2,3-triazol-1-yl)-3-methylbutanoyl)-4-hydroxy-N-((S)-1-(4-(4-methylthiazol-5-yl)phenyl)ethyl)pyrrolidine-2-carboxamide], in test [1], the DC50 is under 0.1 µM and the Dmax is over 90%. Also, in test [2], the DC50 was under 0.1 µM and the Dmax fell in the range of 70 to 90%.
Turning to `Cc1ncsc1-c1ccc2c(NC(=O)[C@@H]3C[C@@H](O)CN3C(=O)[C@@H](n3cc([C@H]4CC[C@H](CN5CCC(c6ccc7c(c6)-n6c(nc(=O)c8c(Cl)cccc86)C7(C)C)CC5)CC4)nn3)C(C)(C)C)n[nH]c2c1` [Compound B148, (2S,4R)-1-((S)-2-(4-((1r,4S)-4-((4-(4-chloro-7,7-dimethyl-5-oxo-5,7-dihydroindolo[1,2-a]quinazolin-10-yl)piperidin-1-yl)methyl)cyclohexyl)-1H-1,2,3-triazol-1-yl)-3,3-dimethylbutanoyl)-4-hydroxy-N-(6-(4-methylthiazol-5-yl)-1H-indazol-3-yl)pyrrolidine-2-carboxamide], in test [1], the DC50 lay within 0.1 to 0.5 µM and the Dmax was under 50%. Besides, in test [2], the DC50 was under 0.1 µM and the Dmax is under 50%.
With `Cc1ncsc1-c1ccc([C@H](CN2CCOCC2)NC(=O)[C@@H]2C[C@@H](O)CN2C(=O)[C@@H](n2cc([C@H]3CC[C@H](CN4CCC(c5ccc6c(c5)-n5c(nc(=O)c7c(Br)cccc75)C6(C)C)CC4)CC3)nn2)C(C)(C)C)cc1` [Compound B105, (2S,4R)-1-((S)-2-(4-((1r,4S)-4-((4-(4-bromo-7,7-dimethyl-5-oxo-5,7-dihydroindolo[1,2-a]quinazolin-10-yl)piperidin-1-yl)methyl)cyclohexyl)-1H-1,2,3-triazol-1-yl)-3,3-dimethylbutanoyl)-4-hydroxy-N—((R)-1-(4-(4-methylthiazol-5-yl)phenyl)-2-morpholinoethyl)pyrrolidine-2-carboxamide], in test [1], the DC50 was under 0.1 µM and the Dmax is over 90%. In test [2], the DC50 is 0.1 to 0.5 µM and the Dmax is 70 to 90%.
For the compound `Cc1ncsc1-c1ccc([C@H](C)NC(=O)[C@@H]2C[C@@H](O)CN2C(=O)[C@@H](NC(=O)C23CCC(CN4CCC(c5ccc6c(c5)C(C)(C)c5nc(=O)c7c(Cl)cccc7n5-6)CC4)(CC2)C3)C(C)(C)C)cc1` [Compound B18, (2S,4R)-1-((S)-2-(4-((4-(4-chloro-7,7-dimethyl-5-oxo-5,7-dihydroindolo[1,2-a]quinazolin-9-yl)piperidin-1-yl)methyl)bicyclo[2.2.1]heptane-1-carboxamido)-3,3-dimethylbutanoyl)-4-hydroxy-N-((S)-1-(4-(4-methylthiazol-5-yl)phenyl)ethyl)pyrrolidine-2-carboxamide], the DC50 in test [1] and in test [2] was under 0.1 µM throughout. Also, the results for the Dmax in test [1] and in test [2] were over 90% and 70 to 90%, respectively.
In the case of `Cc1ncsc1-c1ccc(CNC(=O)[C@@H]2C[C@@H](O)CN2C(=O)[C@@H](NC(=O)C2(F)CC2)C(C)(C)C)c(OCCCN2CCC(c3ccc4c(c3)-n3c(nc(=O)c5c(Cl)cccc53)C4(C)C)CC2)c1` [Compound B39, (2S,4R)-N-(2-(3-(4-(4-chloro-7,7-dimethyl-5-oxo-5,7-dihydroindolo[1,2-a]quinazolin-10-yl)piperidin-1-yl)propoxy)-4-(4-methylthiazol-5-yl)benzyl)-1-((S)-2-(1-fluorocyclopropane-1-carboxamido)-3,3-dimethylbutanoyl)-4-hydroxypyrrolidine-2-carboxamide], the DC50 in test [1] and in test [2] was under 0.1 µM in each case. Besides, the Dmax in test [1] and in test [2] was over 90% each time.
